Assay results: ChEMBL document CHEMBL1152576, “E-Combretastatin and E-resveratrol structural modifications: antimicrobial and cancer cell growth inhibitory beta-E-nitrostyrenes” (Bioorg Med Chem, 2009)
Converted amounts (≈) assume the structure as drawn. The source made the active and inactive calls. The rule behind the calls is not given here.

Experiments:
Cryptococcus neoformans [1] = experiment: Antimicrobial activity against Cryptococcus neoformans ATCC 90112 assessed clear zone in inhibition per disk by CLSI disk diffusion susceptibility assay; type: functional
[2] = Inhibition of tubulin polymerization
Enterococcus faecalis [3] = experiment: Antimicrobial activity against Enterococcus faecalis ATCC 29212 assessed clear zone in inhibition per disk by CLSI disk diffusion susceptibility assay; type: functional
KM-20L2 = experiment: Cytotoxicity against human KM20L2 cells after 48 hrs by sulforhodamine B assay; type: functional
Enterobacter cloacae [4] = experiment: Antimicrobial activity against Enterobacter cloacae ATCC 13047 by broth microdilution susceptibility assay; type: functional
Escherichia coli [5] = experiment: Antimicrobial activity against Escherichia coli ATCC 25922 by broth microdilution susceptibility assay; type: functional
Candida albicans [6] = experiment: Antifungal activity against Candida albicans ATCC 90028 after 24 hrs by broth microdilution susceptibility assay; type: functional; details: ATCC 90028, 24 h
Candida albicans [7] = experiment: Antimicrobial activity against Candida albicans ATCC 90028 assessed clear zone in inhibition per disk by CLSI disk diffusion susceptibility assay; type: functional
Cryptococcus neoformans [8] = experiment: Antifungal activity against Cryptococcus neoformans ATCC 90112 after 48 hrs by broth microdilution susceptibility assay; type: functional; details: ATCC 90112, 48 h
Candida albicans [9] = experiment: Antifungal activity against Candida albicans ATCC 90028 after 48 hrs by broth microdilution susceptibility assay; type: functional; details: ATCC 90028, 48 h
Escherichia coli [10] = experiment: Antimicrobial activity against Escherichia coli ATCC 25922 assessed clear zone in inhibition per disk by CLSI disk diffusion susceptibility assay; type: functional
Staphylococcus aureus [11] = experiment: Antimicrobial activity against Staphylococcus aureus ATCC 29213 by broth microdilution susceptibility assay; type: functional
DU-145 = experiment: Cytotoxicity against human DU145 cells after 48 hrs by sulforhodamine B assay; type: functional
Cryptococcus neoformans [12] = experiment: Antifungal activity against Cryptococcus neoformans ATCC 90112 after 72 hrs by broth microdilution susceptibility assay; type: functional; details: ATCC 90112, 72 h
Micrococcus luteus [13] = experiment: Antimicrobial activity against Micrococcus luteus Presque Isle 456 by broth microdilution susceptibility assay; type: functional
SF-268 = experiment: Cytotoxicity against human SF268 cells after 48 hrs by sulforhodamine B assay; type: functional
P388 = experiment: Cytotoxicity against mouse P388 cells after 48 hrs by sulforhodamine B assay; type: functional; details: for EC50: P388, 48 h, read-out: ED50 (the source's name)
Streptococcus pneumoniae [14] = experiment: Antimicrobial activity against Streptococcus pneumoniae ATCC 6303 by broth microdilution susceptibility assay; type: functional
Micrococcus luteus [15] = experiment: Antimicrobial activity against Micrococcus luteus Presque Isle 456 assessed clear zone in inhibition per disk by CLSI disk diffusion susceptibility assay; type: functional
Streptococcus pneumoniae [16] = experiment: Antimicrobial activity against Streptococcus pneumoniae ATCC 6303 assessed clear zone in inhibition per disk by CLSI disk diffusion susceptibility assay; type: functional
A498 = experiment: Cytotoxicity against human A498 cells after 48 hrs by sulforhodamine B assay; type: functional
MCF7 = experiment: Cytotoxicity against human MCF7 cells after 48 hrs by sulforhodamine B assay; type: functional
Neisseria gonorrhoeae [17] = experiment: Antimicrobial activity against Neisseria gonorrhoeae ATCC 49226 after 24 hrs by broth microdilution susceptibility assay; type: functional; details: ATCC 49226, 24 h
[18] = tested on: Stenotrophomonas maltophilia; experiment: Antimicrobial activity against Stenotrophomonas maltophilia ATCC 13637 assessed clear zone in inhibition per disk by CLSI disk diffusion susceptibility assay; type: functional
SK-MEL-5 = experiment: Cytotoxicity against human SK-MEL-5 cells after 48 hrs by sulforhodamine B assay; type: functional
BXPC-3 = experiment: Cytotoxicity against human BxPC3 cells after 48 hrs by sulforhodamine B assay; type: functional
Neisseria gonorrhoeae [19] = experiment: Antimicrobial activity against Neisseria gonorrhoeae ATCC 49226 assessed clear zone of inhibition measured per disk by CLSI disk diffusion susceptibility assay; type: functional
Enterococcus faecalis [20] = experiment: Antimicrobial activity against Enterococcus faecalis ATCC 29212 by broth microdilution susceptibility assay; type: functional
NCI-H460 = experiment: Cytotoxicity against human NCI-H460 cells after 48 hrs by sulforhodamine B assay; type: functional
Staphylococcus aureus [21] = experiment: Antimicrobial activity against Staphylococcus aureus ATCC 29213 assessed clear zone in inhibition per disk by CLSI disk diffusion susceptibility assay; type: functional
OVCAR-3 = experiment: Cytotoxicity against human OVCAR-3 cells after 48 hrs by sulforhodamine B assay; type: functional
SF-295 = experiment: Cytotoxicity against human SF295 cells after 48 hrs by sulforhodamine B assay; type: functional
Neisseria gonorrhoeae [22] = experiment: Antimicrobial activity against Neisseria gonorrhoeae ATCC 49226 by broth microdilution susceptibility assay; type: functional
Enterobacter cloacae [23] = experiment: Antimicrobial activity against Enterobacter cloacae ATCC 13047 assessed clear zone in inhibition per disk by CLSI disk diffusion susceptibility assay; type: functional
[24] = tested on: Stenotrophomonas maltophilia; experiment: Antimicrobial activity against Stenotrophomonas maltophilia ATCC 13637 by broth microdilution susceptibility assay; type: functional
Streptococcus pneumoniae [25] = experiment: Antimicrobial activity against Streptococcus pneumoniae ATCC 6303 after 24 hrs by broth microdilution susceptibility assay; type: functional; details: ATCC 6303, 24 h

SMILES | MIC (Cryptococcus neoformans [1]) | IC50 [2] | MIC (Enterococcus faecalis [3]) | MIC (Enterobacter cloacae [4]) | MIC (Escherichia coli [5]) | MIC (Candida albicans [7]) | MFC (Cryptococcus neoformans [8]) | MIC (Candida albicans [9]) | MIC (Escherichia coli [10]) | MIC (Staphylococcus aureus [11]) | MIC (Cryptococcus neoformans [12]) | MIC (Micrococcus luteus [13]) | MIC (Streptococcus pneumoniae [14]) | MIC (Micrococcus luteus [15]) | MIC (Streptococcus pneumoniae [16]) | GI50 (A498) | MIC [18] | GI50 (SK-MEL-5) | MIC (Neisseria gonorrhoeae [19]) | MIC (Enterococcus faecalis [20]) | other results
COc1cc(/C=C/[N+](=O)[O-])ccc1O | 3.12 µg | 9.3 µM | 25 µg | > 64 µg/mL | > 64 µg/mL | 6.25 µg | 16 µg/mL (≈ 82 µM) | 16 µg/mL (≈ 82 µM) | 6.25 µg | > 64 µg/mL | 16 µg/mL (≈ 82 µM) | > 64 µg/mL | > 64 µg/mL | 50 µg | 3.12 µg | inactive | 50 µg | inactive | 0.78 µg | > 64 µg/mL | GI50 (KM-20L2; KM-20L2, 48 h): 1.1 µg/mL (≈ 5.64 µM); MFC (Candida albicans [6]): 16 µg/mL (≈ 82 µM); GI50 (DU-145; DU-145, 48 h): 0.38 µg/mL (≈ 1.95 µM); GI50 (SF-268): inactive; EC50 (P388): 0.18 µg/mL (≈ 0.922 µM); GI50 (MCF7): inactive; MBC (Neisseria gonorrhoeae [17]): 4 µg/mL (≈ 20.5 µM); GI50 (BXPC-3; BXPC-3, 48 h): 1.2 µg/mL (≈ 6.15 µM); GI50 (NCI-H460; NCI-H460, 48 h): 0.34 µg/mL (≈ 1.74 µM); MIC (Staphylococcus aureus [21]): 12.5 µg; GI50 (OVCAR-3; OVCAR-3, 48 h): 0.48 µg/mL (≈ 2.46 µM); GI50 (SF-295; SF-295, 48 h): 0.37 µg/mL (≈ 1.9 µM); MIC (Neisseria gonorrhoeae [22]): 4 µg/mL (≈ 20.5 µM); MIC (Enterobacter cloacae [23]): >100 µg; MIC [24]: > 64 µg/mL
COc1cc(/C=C/[N+](=O)[O-])cc(OC)c1O | 25 µg | 8.5 µM | 50 µg | > 64 µg/mL | > 64 µg/mL | 50 µg | 64 µg/mL (≈ 284 µM) | > 64 µg/mL | >100 µg | > 64 µg/mL | 64 µg/mL (≈ 284 µM) | > 64 µg/mL | 64 µg/mL (≈ 284 µM) | >100 µg | 6.25 µg | inactive | 50 µg | inactive | 1.56 µg | > 64 µg/mL | GI50 (KM-20L2; KM-20L2, 48 h): 1.1 µg/mL (≈ 4.88 µM); MBC (Streptococcus pneumoniae [25]): > 64 µg/mL; GI50 (DU-145; DU-145, 48 h): 0.36 µg/mL (≈ 1.6 µM); GI50 (SF-268; SF-268, 48 h): 0.54 µg/mL (≈ 2.4 µM); EC50 (P388): 2.2 µg/mL (≈ 9.77 µM); GI50 (MCF7; MCF7, 48 h): 0.44 µg/mL (≈ 1.95 µM); MBC (Neisseria gonorrhoeae [17]): 4 µg/mL (≈ 17.8 µM); GI50 (BXPC-3; BXPC-3, 48 h): 1.5 µg/mL (≈ 6.66 µM); GI50 (NCI-H460; NCI-H460, 48 h): 0.38 µg/mL (≈ 1.69 µM); MIC (Staphylococcus aureus [21]): >100 µg; GI50 (OVCAR-3): inactive; GI50 (SF-295): inactive; MIC (Neisseria gonorrhoeae [22]): 4 µg/mL (≈ 17.8 µM); MIC (Enterobacter cloacae [23]): >100 µg; MIC [24]: > 64 µg/mL
COc1cc(/C=C/[N+](=O)[O-])cc(OC)c1OC | 3.12 µg | 4.5 µM | 50 µg | > 64 µg/mL | > 64 µg/mL | 3.12 µg | 16 µg/mL (≈ 66.9 µM) | 32 µg/mL (≈ 134 µM) | >100 µg | > 64 µg/mL | 16 µg/mL (≈ 66.9 µM) | > 64 µg/mL | > 64 µg/mL | 25 µg | 3.12 µg | inactive | >100 µg | inactive | 0.78 µg | > 64 µg/mL | GI50 (KM-20L2; KM-20L2, 48 h): 1.3 µg/mL (≈ 5.43 µM); MFC (Candida albicans [6]): 32 µg/mL (≈ 134 µM); GI50 (DU-145; DU-145, 48 h): 1 µg/mL (≈ 4.18 µM); GI50 (SF-268): inactive; EC50 (P388): 1.1 µg/mL (≈ 4.6 µM); GI50 (MCF7): inactive; MBC (Neisseria gonorrhoeae [17]): 8 µg/mL (≈ 33.4 µM); GI50 (BXPC-3; BXPC-3, 48 h): 1.4 µg/mL (≈ 5.85 µM); GI50 (NCI-H460; NCI-H460, 48 h): 1.1 µg/mL (≈ 4.6 µM); MIC (Staphylococcus aureus [21]): 12.5 µg; GI50 (OVCAR-3; OVCAR-3, 48 h): 0.42 µg/mL (≈ 1.76 µM); GI50 (SF-295; SF-295, 48 h): 1.3 µg/mL (≈ 5.43 µM); MIC (Neisseria gonorrhoeae [22]): 4 µg/mL (≈ 16.7 µM); MIC (Enterobacter cloacae [23]): >100 µg; MIC [24]: > 64 µg/mL
COc1cc(/C=C/[N+](=O)[O-])cc2c1OCO2 | 3.12 µg | 5.6 µM | >100 µg | > 64 µg/mL | > 64 µg/mL | 1.56 µg | > 64 µg/mL | > 64 µg/mL | >100 µg | > 64 µg/mL | 64 µg/mL (≈ 287 µM) | > 64 µg/mL | > 64 µg/mL | >100 µg | >100 µg | inactive | >100 µg | inactive | 1.56 µg | > 64 µg/mL | GI50 (KM-20L2): inactive; GI50 (DU-145): inactive; GI50 (SF-268): inactive; ED50 (P388): inactive; GI50 (MCF7): inactive; GI50 (BXPC-3): inactive; GI50 (NCI-H460): inactive; MIC (Staphylococcus aureus [21]): >100 µg; GI50 (OVCAR-3): inactive; GI50 (SF-295): inactive; MIC (Neisseria gonorrhoeae [22]): > 64 µg/mL; MIC (Enterobacter cloacae [23]): >100 µg; MIC [24]: > 64 µg/mL
